From patent US12016312B2, “Animal models, screening methods, and treatment methods for intraocular diseases or disorders” (ZHUHAI QIWEI BIO-TECHNOLOGY LTD., priority 2018, dated 2024)
Entries after “also recorded” stand apart in the source; their conditions may differ.

Key:
Bacillus megaterium [1] = assay: Antibiotic sensitivity screening test in petri dishes (MIC method); type: cell-based; conditions: 10^-1 to 10^-5 mg/mL
Procedure: (§1) The bacterial culture medium (HuanKai Microbial, Guangzhou, China) containing peptone 5 g, beef extract 3 g, NaCl 5 g, agar 15 g, and MnSO4 5 mg in 1 L ddH2O (pH=7.2) was prepared in conical flask (Drtech, Guangzhou, China) and was sterilized in the autoclave (HIRAYAMA, HEV-50, Japan) at 121° C. for 30 min. Bacillus megaterium (total 1*10^7 per culture) was cultured in the incubator (HettCube 200, Germany) at 37° C. for 24 h.
To test whether antibiotics can control the growth of Bacillus megaterium in vitro and in vivo, we first carried out an antibiotic sensitivity screening test in petri dishes which were made in example 1. The sensitivity of Bacillus megaterium to several major antimicrobial agents including ampicillin, vancomycin, neomycin, metronidazole and tetracycline were examined using the minimum inhibitory concentration (MIC) method. Ampicillin, vancomycin, neomycin, metronidazole, and tetracycline (purchased from Sigma, USA) at various concentrations (10^−1, 10^−2, 10^−3, 10^−4, 10^−5 mg/mL) were added into cooled medium.
as §1, with “Bacillus megaterium (total 1*10^7 per culture) was cultured in the incubator (HettCube 200, Germany) at 37° C. for 24 h.” left out

Bacillus megaterium [2] = assay: Bacillus megaterium subretinal inoculation model, drusenoid pathology in monkey retinal tissues; type: in vivo, Macaca fascicularis; conditions: intravitreous, 0.5 mg, one injection on Day 2 post bacterial inoculation; macaque
Procedure: The macaques were sedated by intramuscular injection of a mixture of tiletamine hydrochloride (2.5 mg/kg) and xolazepam hydrochloride (2.5 mg/kg). After instilling topical anesthesia (0.5% proparacaine hydrochloride), the eyes were immediately visualized in vivo using a light microscope. The pupils were then dilated with 0.5% tropicamide and 0.5% phenylephrine to obtain the fundus photographs. […] Under microscopic monitoring, 20 μl of PBS (with or without bacteria) was injected into the subretinal space between photo receptors and RPE (retinal pigment epithelium), using a NanoFil Syringe Nanofil-100 for Microinjection (World Precision Instruments, USA). All procedures were done using sterile instruments. The macaque was euthanized 47 days post inoculation and the eyeball was enucleated for histological analyses. The eyeballs were fixed in 4% paraformaldehyde for 48 h and then embedded in paraffin. Sections were cut on a microtome at 6 μm and stained with H&E.
We examined whether subretinal inoculation of AH and VH cultures, as well as the cultured single species of B. megaterium led to AMD like pathology in macaque. About 20 CFU of bacteria (in 20 μl PBS) from AH, VH, and B. megaterium cultures were injected subretinally and PBS was used as a control (illustrated in FIG. 6). […]

neomycin
sensitivity of Bacillus megaterium to antimicrobial agents (control of growth in vitro) (Bacillus megaterium [1]; 1*10^7 bacteria per culture, 37° C., 24 h): most sensitive; also recorded: best in vitro activity

Cc1ncc([N+](=O)[O-])n1CCO [metronidazole]
fold less effective in controlling the growth of Bacillus megaterium (relative to neomycin) (Bacillus megaterium [1]): 10000 fold

CN[C@H](CC(C)C)C(=O)N[C@H]1C(=O)N[C@@H](CC(N)=O)C(=O)N[C@H]2C(=O)N[C@H]3C(=O)N[C@H](C(=O)N[C@H](C(=O)O)c4cc(O)cc(O)c4-c4cc3ccc4O)[C@H](O)c3ccc(c(Cl)c3)Oc3cc2cc(c3O[C@@H]2O[C@H](CO)[C@@H](O)[C@H](O)[C@H]2O[C@H]2C[C@](C)(N)[C@H](O)[C@H](C)O2)Oc2ccc(cc2Cl)[C@H]1O [vancomycin]
size of drusenoid lesion in retinal tissue (Bacillus megaterium [2]): reduce drusenoid lesion; also recorded: reduction in the size of drusenoid lesion
